Measurements published in EP4585588A1, “BENZIMIDAZOLE COMPOUND, AND PREPARATION METHOD THEREFOR AND USE THEREOF” (Suzhou Pharmavan Co., Ltd., priority 2022, dated 2024).

What follows are molecules tested on myosin heavy chain β (β-MHC). Settings: 48 h, 10 µM.
Method: Primary cardiomyocytes of suckling rats were isolated and cultured and inoculated on a cell culture plate. A drug stock solution was taken and separately added to cell wells according to a certain dilution ratio, and a final concentration was 10 µM. After half hour of drug action, a phenylephrine (PE) stock solution was added, and a final concentration of PE was 20 µM. After 48 hours of PE action, cell samples were collected for real-time quantitative PCR assay or cell area measurement.
Separation and plating of cardiomyocytes of rats: a certain number of SPF suckling rats were taken and placed in a clean bench according to an actual requirement for the number of cells, thoracic cavities were opened by scissors, hearts were separated, and the hearts were cut into tissue fragments with sterilized surgical scissors; Collagenase Type II (manufacturer: Sigma, article No.: C2-28-100MG) was added to a D-HANKS balanced salt buffer to prepare a 5 µg/mL enzyme digestion solution, and the tissue fragments of hearts were continuously digested for three times in a 37 °C constant-temperature water bath box; about 2 mL of the enzyme digestion solution was added for the first time, a supernatant was discarded after digestion, centrifugation and precipitation of cardiomyocytes and tissue fragments, about 4 mL of the enzyme digestion solution was independently added for the second time and the third time to continue digestion, a supernatant was remained each time, DMEM containing 10% FBS with the same volume as the digestion solution in the supernatant was immediately added to neutralize digestive enzymes, the supernatants for the second time and the third time were combined and centrifuged, a supernatant was discarded, an appropriate amount of DMEM containing 10% FBS was added to resuspend the cardiomyocytes, the cardiomyocytes were inoculated in a 100 mm culture plate and subjected to differential adhesion in a constant-temperature cell incubator for 2 h, and a supernatant was taken for cell count.
A 24-well plate precoated with 1% gelatin was taken and plated at 1×10^5 cells/well, 500 µL of a 10% FBS+DMEM medium was contained in each well, and cells were cultured in a 37 °C constant-temperature cell incubator for 24 h. Different compounds were independently prepared into a 100 mM mother liquor with DMSO and gradient diluted with a 10% FBS+DMEM medium to prepare a 10 µM final solution of the compound containing 0.5% DMSO. The medium in the 24-well plate was discarded and replaced with a 500 µL/well medium containing a 10 µM compound, and three replicate wells and a negative control well were set for each compound. After 0.5 hours of drug action, PE (manufacturer: Meilun Biotechnology; article No.: MB1602) with a final concentration of 20 µM was added to each well, and no PE was added to the negative control wells; after 48 hours of PE action, sample detection was performed.
Expression levels of genes related to cardiomyocyte hypertrophy was analyzed via real-time quantitative PCR detection of mRNA level of atrial natriuretic peptide (ANP) and myosin heavy chain β (β-MHC). The steps include extraction of total RNA of cells, reverse transcription synthesis of cDNA and real-time quantitative PCR assay.
Based on real-time quantitative PCR detection of an mRNA level of ANP of cardiomyocytes, a drug with a potential of anti-cardiomyocyte hypertrophy was preliminarily screened and verified with an mRNA level of another hypertrophy gene β-MHC using a statistical method One-way ANOVA and statistical software GraphPad Prism.

Going from `Cc1nc2cc(-c3cc(C(=O)O)cc(F)c3O)ccc2[nH]1` [Formula I-10, 3-fluoro-4-hydroxy-5-(2-methyl-1H-benzimidazol-5-yl)benzoic acid] to `Cc1nc2cc(-c3cc(CC#N)cc(F)c3O)ccc2[nH]1` [Formula I-19, 2-(3-fluoro-4-hydroxy-5-(2-methyl-1H-benzimidazol-5-yl)phenyl)acetonitrile], the “Mean (real-time quantitative PCR validation results of cardiomyocyte β-MHC)” value (“Mean” below) rises from 1.14 to 1.26.

Compared with `COC(=O)c1ccc(O)c(-c2ccc3[nH]c(C)nc3c2)c1` [Formula I-12, methyl 4-hydroxy-3-(2-methyl-1H-benzimidazol-5-yl) benzoate], `COC(=O)c1cc(F)c(CO)c(-c2ccc3[nH]c(C)nc3c2)c1` [Formula II-110, methyl 3-fluoro-4-(hydroxymethyl)-5-(2-methyl-1H-benzimidazol-5-yl) benzoate] is higher in “Mean” value: 1.19 for the first, 1.34 for the second.

Compared with `Cc1nc2cc(-c3cc(CC#N)ccc3O)ccc2[nH]1` [Formula I-18, 2-(4-hydroxy-3-(2-methyl-1H-benzimidazol-5-yl)phenyl)acetonitrile], `CCCc1ccc(O)c(-c2ccc3[nH]c(C)nc3c2)c1` [Formula I-21, 2-(2-methyl-1H-benzimidazol-5-yl)-4-propylphenol] is lower in “Mean” value: 1.18 for the first, 1.05 for the second.

Compared with `NC(=O)c1ccc(O)c(-c2ccc3[nH]cnc3c2)c1` [Formula I-27, 4-hydroxy-3-(1H-benzimidazol-5-yl)benzamide], `O=C(O)c1ccc(O)c(-c2ccc3[nH]cnc3c2)c1` [Formula I-33, 4-hydroxy-3-(1H-benzimidazol-5-yl)benzoic acid] is lower in “Mean” value: 1.27 for the first, 1.22 for the second.

First: NC(=O)c1cc(F)c(O)c(-c2ccc3[nH]cnc3c2)c1 [Formula I-28, 3-fluoro-4-hydroxy-5-(1H-benzimidazol-5-yl)benzamide]
Second: CN(C)C(=O)c1cc(F)c(O)c(-c2ccc3[nH]cnc3c2)c1 [Formula I-31, 3-fluoro-4-hydroxy-N,N-dimethyl-5-(1H-benzimidazol-5-yl)benzamide]
The “Mean” value of the first is lower: 1.07 for the first, 1.29 for the second.

First: COC(=O)c1cc(C#N)c(O)c(-c2ccc3[nH]cnc3c2)c1 [Formula I-38, methyl 3-cyano-4-hydroxy-5-(1H-benzimidazol-5-yl) benzoate]
Second: CC(O)c1c(C#N)cc(C(N)=O)cc1-c1ccc2[nH]cnc2c1 (stereo not drawn) [Formula II-78, 3-cyano-4-(1-hydroxyethyl)-5-(1H-benzimidazol-5-yl)benzamide]
The “Mean” value of the first is lower: 1.26 for the first, 1.35 for the second.

Going from `C=CCc1cc(F)c(O)c(-c2ccc3[nH]cnc3c2)c1` [Formula I-40, 4-allyl-2-(1H-benzimidazol-5-yl)-6-fluorophenol] to `C=CCc1cc(C#N)c(O)c(-c2ccc3[nH]cnc3c2)c1` [Formula I-41, 5-allyl-3-(1H-benzimidazol-5-yl)-2-hydroxybenzonitrile], the “Mean” value rises from 1.28 to 1.37.

Going from `CCCc1ccc(O)c(-c2ccc3[nH]cnc3c2)c1` [Formula I-45, 2-(1H-benzimidazol-5-yl)-4-propylphenol] to `CCCc1ccc(CO)c(-c2ccc3[nH]cnc3c2)c1` [Formula II-142, (2-(1H-benzimidazol-5-yl)-4-propylphenyl)methanol], the “Mean” value rises from 1.39 to 1.40.

First: Cc1nc2cc(-c3cc(C(=O)N(C)C)cc(C#N)c3C(C)(C)O)ccc2[nH]1 [Formula II-9, 3-cyano-4-(2-hydroxypropan-2-yl)-N,N-dimethyl-5-(2-methyl-1H-benzimidazol-5-yl)benzamide]
Second: Cc1nc2cc(-c3cc(C(=O)N(C)C)cc(C#N)c3C(C)O)ccc2[nH]1 (stereo not drawn) [Formula II-57, 3-cyano-4-(1-hydroxyethyl)-N,N-dimethyl-5-(2-methyl-1H-benzimidazol-5-yl)benzamide]
The “Mean” value of the first is lower: 1.18 for the first, 1.26 for the second.

Going from `Cc1nc2cc(-c3cc(C(=O)O)ccc3C(C)(C)O)ccc2[nH]1` [Formula II-10, 4-(2-hydroxypropan-2-yl)-3-(2-methyl-1H-benzimidazol-5-yl)benzoic acid] to `Cc1nc2cc(-c3cc(F)ccc3C(C)O)ccc2[nH]1` (stereo not drawn) [Formula II-49, 1-(4-fluoro-2-(2-methyl-1H-benzimidazol-5-yl)phenyl)ethane-1-ol], the “Mean” value rises from 1.27 to 1.36.

First: C=CCc1cc(F)c(C(C)(C)O)c(-c2ccc3[nH]c(C)nc3c2)c1 [Formula II-17, 2-(4-allyl-2-fluoro-6-(2-methyl-1H-benzimidazol-5-yl)phenyl)propane-2-ol]
Second: C=CCc1cc(C#N)c(C(C)(C)O)c(-c2ccc3[nH]c(C)nc3c2)c1 [Formula II-18, 5-allyl-2-(2-hydroxypropan-2-yl)-3-(2-methyl-1H-benzimidazol-5-yl)benzonitrile]
The “Mean” value of the first is lower: 1.13 for the first, 1.19 for the second.

Compared with `CC(C)(O)c1ccc(F)cc1-c1ccc2[nH]cnc2c1` [Formula II-25, 2-(4-fluoro-2-(1H-benzimidazol-5-yl)phenyl)propane-2-ol], `CC(C)(O)c1ccc(CC#N)cc1-c1ccc2[nH]cnc2c1` [Formula II-43, 2-(4-(2-hydroxypropan-2-yl)-3-(1H-benzimidazol-5-yl)phenyl)acetonitrile] is lower in “Mean” value: 1.52 for the first, 1.21 for the second.

Compared with `CC(C)(O)c1c(F)cc(F)cc1-c1ccc2[nH]cnc2c1` [Formula II-26, 2-(2,4-difluoro-6-(1H-benzimidazol-5-yl)phenyl)propane-2-ol], `C=CCc1cc(C#N)c(C(C)(C)O)c(-c2ccc3[nH]cnc3c2)c1` [Formula II-42, 5-allyl-2-(2-hydroxypropan-2-yl)-3-(1H-benzimidazol-5-yl)benzonitrile] is higher in “Mean” value: 1.42 for the first, 1.48 for the second.

First: CC(C)(O)c1c(C#N)cc(C(N)=O)cc1-c1ccc2[nH]cnc2c1 [Formula II-30, 3-cyano-4-(2-hydroxypropan-2-yl)-5-(1H-benzimidazol-5-yl)benzamide]
Second: CC(C)(O)c1c(C#N)cc(C(=O)O)cc1-c1ccc2[nH]cnc2c1 [Formula II-36, 3-cyano-4-(2-hydroxypropan-2-yl)-5-(1H-benzimidazol-5-yl)benzoic acid]
The “Mean” value of the first is lower: 1.21 for the first, 1.41 for the second.

First: Cc1nc2cc(-c3cc(C(N)=O)cc(C#N)c3C(C)O)ccc2[nH]1 (stereo not drawn) [Formula II-54, 3-cyano-4-(1-hydroxyethyl)-5-(2-methyl-1H-benzimidazol-5-yl)benzamide]
Second: COC(=O)c1cc(C#N)c(C(C)O)c(-c2ccc3[nH]c(C)nc3c2)c1 (stereo not drawn) [Formula II-63, methyl 3-cyano-4-(1-hydroxyethyl)-5-(2-methyl-1H-benzimidazol-5-yl) benzoate]
The “Mean” value of the first is lower: 1.28 for the first, 1.36 for the second.

Going from `C=CCc1ccc(C(C)O)c(-c2ccc3[nH]c(C)nc3c2)c1` (stereo not drawn) [Formula II-64, 1-(4-allyl-2-(2-methyl-1H-benzimidazol-5-yl)phenyl)ethane-1-ol] to `CC(O)c1ccc(CC#N)cc1-c1ccc2[nH]cnc2c1` (stereo not drawn) [Formula II-91, 2-(4-(1-hydroxyethyl)-3-(1H-benzimidazol-5-yl)phenyl)acetonitrile], the “Mean” value rises from 1.22 to 1.57.

First: CC(O)c1ccc(C(=O)O)cc1-c1ccc2[nH]cnc2c1 (stereo not drawn) [Formula II-82, 4-(1-hydroxyethyl)-3-(1H-benzimidazol-5-yl)benzoic acid]
Second: COC(=O)c1ccc(CO)c(-c2ccc3[nH]cnc3c2)c1 [Formula II-133, methyl 4-(hydroxymethyl)-3-(1H-benzimidazol-5-yl) benzoate]
The “Mean” value of the first is lower: 1.15 for the first, 1.46 for the second.

Going from `C=CCc1cc(C#N)c(C(C)O)c(-c2ccc3[nH]cnc3c2)c1` (stereo not drawn) [Formula II-90, 5-allyl-2-(1-hydroxyethyl)-3-(1H-benzimidazol-5-yl)benzonitrile] to `CCCc1cc(F)c(C(C)O)c(-c2ccc3[nH]cnc3c2)c1` (stereo not drawn) [Formula II-95, 1-(2-fluoro-6-(1H-benzimidazol-5-yl)-4-propylphenyl)ethane-1-ol], the “Mean” value falls from 1.27 to 1.24.

Compared with `Cc1nc2cc(-c3cc(C(N)=O)cc(C#N)c3CO)ccc2[nH]1` [Formula II-102, 3-cyano-4-(hydroxymethyl)-5-(2-methyl-1H-benzimidazol-5-yl)benzamide], `CCCc1cc(C#N)c(CO)c(-c2ccc3[nH]c(C)nc3c2)c1` [Formula II-120, 2-(hydroxymethyl)-3-(2-methyl-1H-benzimidazol-5-yl)-5-propylbenzonitrile] is higher in “Mean” value: 1.28 for the first, 1.45 for the second.

First: Cc1nc2cc(-c3cc(C(=O)N(C)C)cc(F)c3CO)ccc2[nH]1 [Formula II-104, 3-fluoro-4-(hydroxymethyl)-N,N-dimethyl-5-(2-methyl-1H-benzimidazol-5-yl)benzamide]
Second: CN(C)C(=O)c1cc(F)c(CO)c(-c2ccc3[nH]cnc3c2)c1 [Formula II-128, 3-fluoro-4-(hydroxymethyl)-N,N-dimethyl-5-(1H-benzimidazol-5-yl)benzamide]
The “Mean” value of the first is lower: 1.25 for the first, 1.27 for the second.

Going from `Cc1nc2cc(-c3cc(CC#N)cc(F)c3CO)ccc2[nH]1` [Formula II-116, 2-(3-fluoro-4-(hydroxymethyl)-5-(2-methyl-1H-benzimidazol-5-yl)phenyl)acetonitrile] to `CN(C)C(=O)c1cc(C#N)c(CO)c(-c2ccc3[nH]cnc3c2)c1` [Formula II-129, 3-cyano-4-(hydroxymethyl)-N,N-dimethyl-5-(1H-benzimidazol-5-yl)benzamide], the “Mean” value falls from 1.58 to 1.34.
